Test results reported in patent publication US20250367157A1, “COMPOSITION FOR USE IN THE TREATMENT OF DISEASES ASSOCIATED WITH DYSFUNCTION OF MITOCHONDRIAE” (IUF LEIBNIZ-INSTITUT FÜR UMWELTMEDIZINISCHE FORSCHUNG GMBH, priority 2022, published 2025).

Key:
[1] = system: primary normal human dermal fibroblasts (NHF); test: ATP immunofluorescence microscopy, NHF; type: cell-based; conditions: Choline 100 mM, Acetate 10 mM, alone or combined
Experimental: Primary NHF and XPA-deficient fibroblasts were grown on chamber glass slides (Sarstedt) in growth medium containing 15% FCS. 48 hours before UVB irradiation, medium was removed, cells were washed with PBS and received growth medium containing 1% FCS. 24 hours later, medium was removed, and cells received growth medium (1% FCS) containing Choline (100 mM) and Acetate (10 mM). Control cells received normal growth medium supplied with 1% FCS. 24 hours later, medium was removed, cells were washed with PBS and were irradiated with UVB in fresh PBS. Unirradiated control (Sham) cells grown in a second chamber were treated essentially equal but were not exposed to UVB. After irradiation, PBS was removed, and cells were treated with Choline/Acetate or control growth medium. 24 hours later, medium was removed, cells were washed with PBS and fixed with 2% paraformaldehyde. For immunofluorescence staining of ATP and the ATP5A subunit of the mitochondrial ATP synthase, cells were permeabilized with PBS containing 0.1% Triton X-100 and incubated with an anti-ATP antibody raised in rabbit (MyBioSource) and an anti-ATP5A antibody raised in mouse (Abcam) overnight at 4° C. […] Cells were incubated with anti-mouse and anti-rabbit secondary antibodies either labeled with a green (Alexa Fluor 488, Thermo Fisher) or with a red fluorescence dye (Alexa Fluor 594, Thermo Fisher) for 2 hours at room temperature. […] Slides were mounted using an anti-fade mounting medium (Southern Biotech) and analyzed with a fluorescence microscope (Zeiss).
As described herein above for FIG. 2 B, further primary normal human dermal fibroblasts (NHF) and XPA-deficient fibroblasts were grown on chamber glass slides (Sarstedt) in growth medium containing 15% FCS. […] Cells were incubated with anti-mouse and anti-rabbit secondary antibodies either labeled with a green (Alexa Fluor 488, Thermo Fisher) or with a red fluorescence dye (Alexa Fluor 594, Thermo Fisher) for 2 hours at room temperature. […] Slides were mounted using an anti-fade mounting medium (Southern Biotech) and analyzed with a fluorescence microscope (Zeiss). […]

[2] = system: primary XPA-deficient human fibroblasts; test: RNA isolation and real-time PCR, XPA fibroblasts; type: cell-based; conditions: 24 hours after UVB, Choline 100 mM, alone or combined; for RNA levels of PKM1, PKM2, MT-ATP6, MT-ATP8, SOD2, AKR1B1, HSPA2, TFPI2: Acetate 10 mM, FIG. 3; for RNA levels of CRYAB, HSPA2, ISYNA1: DMKG 10 mM, FIG. 9
Experimental: (§1) 200 ng of purified RNA were used for cDNA synthesis using SuperScript reverse transcriptase (Thermo Fisher). Expression levels of the genes PKM1, PKM2, MT-ATP6, MT-ATP8, MT-ND1, MT-ND3, TFAM, SOD2, AKR1B1, HSPA2 and TFPI2 were analyzed using a CFX Connect Real-Time PCR detection system and SYBR Green Supermix (both from Bio-Rad). Expression levels of the genes mentioned above were normalized in comparison to the housekeeper genes 18S (for experiments with XPA-deficient fibroblasts) or β2-microglobulin (for experiments with CSB-deficient fibroblasts).
200 ng of purified RNA were used for cDNA synthesis using SuperScript reverse transcriptase (Thermo Fisher). Expression levels of selected genes were analyzed using a CFX Connect Real-Time PCR detection system and SYBR Green Supermix (both from Bio-Rad). Expression levels of the selected genes were normalized in comparison to the housekeeper gene 18S.

[3] = system: primary CSB-deficient human fibroblasts; conditions: Example 2.1; Sham and UVB; Choline 100 mM, Acetate 10 mM, alone or combined; FIG. 11
Experimental: As described herein above for FIG. 2 B, primary NHF and CSB-deficient fibroblasts were grown on chamber glass slides (Sarstedt) in growth medium containing 15% FCS. 48 hours before UVB irradiation, medium was removed, cells were washed with PBS and received growth medium containing 1% FCS. 24 hours later, medium was removed, and cells received growth medium (1% FCS) containing either Choline (100 mM), Acetate (10 mM), or a combination of Choline (100 mM) and Acetate (10 mM) (Chol/Ac). Control cells received normal growth medium supplied with 1% FCS. 24 hours later, medium was removed, cells were washed with PBS and were irradiated with UVB (FIG. 11 B) in fresh PBS. Unirradiated control (Sham) cells (FIG. 11 A) grown in a second chamber were treated essentially equal but were not exposed to UVB. After irradiation, PBS was removed and cells were treated again with the respective compounds or control growth medium. 24 hours later, medium was removed, cells were washed with PBS and fixed with 2% paraformaldehyde. […] Cells were incubated with anti-mouse and anti-rabbit secondary antibodies either labeled with a green (Alexa Fluor 488, Thermo Fisher) or with a red fluorescence dye (Alexa Fluor 594, Thermo Fisher) for 2 hours at room temperature. […] Slides were mounted using an anti-fade mounting medium (Southern Biotech) and analyzed with a fluorescence microscope (Zeiss).

[4] = system: primary XPA-deficient human fibroblasts; test: Protein extraction and Western blot, XPA fibroblasts; type: cell-based; conditions: Choline 100 mM alone or with Acetate 10 mM; FIG. 4 A
Experimental: Histone samples were stored at −80° C.

[5] = system: primary XPA-deficient human fibroblasts; conditions: Choline 100 mM, Acetate 10 mM, alone or combined; FIG. 2 B, FIG. 7 B
Experimental: Medium was removed and cells received growth medium (1% FCS) containing either Choline (100 mM), Acetate (10 mM), or a combination of Choline (100 mM) and Acetate (10 mM) (Chol/Ac). Control cells received normal growth medium supplied with 1% FCS. 24 hours later, cells received fresh medium containing the respective compounds and were incubated for another 24 hours. The cells were washed with PBS and fixed with 2% paraformaldehyde. For immunofluorescence staining of ATP and the ATP5A subunit of the mitochondrial ATP synthase, cells were permeabilized with PBS containing 0.1% Triton X-100 and incubated with an anti-ATP antibody raised in rabbit (MyBioSource) and an anti-ATP5A antibody raised in mouse (Abcam) overnight at 4° C. Next day, antibodies were removed, and cells were washed three times with PBS containing 0.1% Triton X-100. Cells were incubated with anti-mouse and anti-rabbit secondary antibodies either labeled with a green (Alexa Fluor 488, Thermo Fisher) or with a red fluorescence dye (Alexa Fluor 594, Thermo Fisher) for 2 hours at room temperature. Antibodies were removed and cells were washed three times with PBS containing 0.1% Triton X-100. Slides were mounted using an anti-fade mounting medium (Southern Biotech) and analyzed with a fluorescence microscope (Zeiss).

[6] = system: primary CSB-deficient human fibroblasts; test: RNA isolation and real-time PCR, CSB fibroblasts; type: cell-based; conditions: Choline 100 mM, alone or combined
Experimental: as §1
200 ng of purified RNA were used for cDNA synthesis using SuperScript reverse transcriptase (Thermo Fisher). Expression levels of selected genes were analyzed using a CFX Connect Real-Time PCR detection system and SYBR Green Supermix (both from Bio-Rad).

[7] = system: primary XPA-deficient human fibroblasts; test: Apoptosis measurement (annexin V/propidium iodide flow cytometry); type: cell-based; conditions: Cisplatin 50 μM, 24 hours, XPA Control vs XPA Cisplatin; FIG. 1 B
Experimental: Primary human fibroblasts obtained from Xeroderma pigmentosum group A (XPA) patients and Cockayne Syndrome group B (CSB) patients were purchased from Coriell Institute (USA). Normal human fibroblasts (NHF) were isolated from skin samples obtained from healthy age-matched donors undergoing skin surgery. Cells were grown in Dulbecco's Modified Eagle Medium (DMEM) supplemented with 1% glutamine, antibiotics/antimycotics (growth medium) and 15% fetal calf serum (FCS) at 37° C. in a humidified atmosphere containing 5% CO2. For experiments, cells were detached from culture flasks by treatment with 0.05% trypsin solution (5 min/37° C.). After blocking trypsin activity by adding growth medium with 10% FCS, cells were spun down, resuspended in growth medium (15% FCS) and plated in appropriate culture dishes. Cells were allowed to grow until they reached around 80% confluency. […] Next day, cells were treated with the compounds Choline Chloride (here called Choline), or Sodium Acetate (here called Acetate), or both of them (both compounds were purchased from Sigma-Aldrich). […] Cells were analyzed by using a FACSCanto flow cytometry system. The percentage of early apoptotic cells defined as annexin V (+) and propidium iodide (-) was determined.

SMILES | cellular ATP levels (anti-ATP antibody staining) ([1]; Example 2, FIG. 2 B, FIG. 7 A) | RNA levels of PKM1, PKM2, MT-ATP6, MT-ATP8, SOD2, AKR1B1, HSPA2, TFPI2 [2] | RNA levels of CRYAB, HSPA2, ISYNA1 [2] | cellular ATP levels (anti-ATP antibody staining) [5] | other results
C[N+](C)(C)CCO.[Cl-] [Choline, Choline Chloride] | accumulation of ATP in the cellular nuclei | induced gene expression | induced gene expression of CRYAB, HSPA2 and ISYNA1 | accumulation of ATP in the cellular nuclei | cellular ATP levels (anti-ATP antibody staining) ([1]; Example 2.1, Sham and UVB, FIG. 11): accumulation of ATP in the cellular nuclei; cellular ATP levels (anti-ATP antibody staining) [3]: accumulation of ATP in the cellular nuclei; GLUT1 protein level [4]: equally increased
CCCCCCC(=O)OCC(COC(=O)CCCCCC)OC(=O)CCCCCC [Triheptanoin] | – | – | – | – | RNA levels of AKR1B1, SOD2 ([6]; 24 hours after UVB, Triheptanoin 100 μM, FIG. 13): only little or even no positive effect on the RNA level of AKR1B1, and SOD2
COC(=O)CCC(=O)C(=O)OC [DMKG, Dimethyl-α-Ketoglutarate] | – | – | only little (or even no) effect on most RNA levels | – | –
CC(=O)[O-].[Na+] [Acetate, Sodium Acetate] | no effect on cellular ATP abundance when given alone | does not increase RNA levels after UVB | – | no effect on cellular ATP abundance when given alone | RNA levels of SOD2, HSPA2 ([6]; 48 hours after UVB, Acetate 10 mM, FIG. 12): only little or even no effect on the RNA levels of the depicted genes
N.N.[Cl][Pt][Cl] [Cisplatin] | – | – | – | – | apoptosis induction by the DNA-damaging agent alone [7]: increased apoptosis (cell death) induction
